Assay results published in US12391679B2, “Benzamide-substituted bicyclic imidazo- and pyrazolo-fused -pyridine, -pyrimide, and -pyridazine compounds for treatment of inflammatory diseases” (ONCO3R Therapeutics BV, priority 2019, dated 2025).

Legend:
SIK3 = target: T1, SIK3 (Homo sapiens, UniProt Q9Y2K2); test: ADP-Glo kinase assay, SIK3; assay type: biochemical
T1 construct: purchased SignalChem S12-11G-100
Procedure, shortened: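 Steps: add enzyme–substrate mixture; start with diluted ATP; incubate RT 120 min; add ADP-Glo Reagent to terminate and remove unconsumed ATP, 40 min; add detection reagent, 30 min; read luminescence. DMSO at 1% and staurosporine at 10 μM (final) define assay windows.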

[1] = system: LPS-induced TNFα in monocytes; test: Monocytes assay: LPS-triggered TNFα (ELISA); assay type: cell-based, human; settings: Homo sapiens, Monocyte, LPS-triggered TNFα inhibition
Procedure, shortened: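 TNFα secretion was triggered with 200 ng/mL LPS for 4 h in human blood CD14+ monocytes after 1 h compound pretreatment at 37 °C, with 0.2% final DMSO. Supernatants were analysed by streptavidin-HRP/luminol ELISA, and percentage inhibition at each concentration was derived relative to control wells.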

[2] = system: LPS triggered IL-10 secretion in monocytes; test: Monocytes assay: LPS-triggered IL-10 (ELISA); assay type: cell-based, human; settings: Homo sapiens, Monocyte, LPS-triggered IL-10 induction, median maximal fold change vs LPS only, read-out: IL-10 FCmax median
Procedure, shortened: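 CD14+ monocytes bead-isolated from human PBMCs, pretreated with compound 1 h at 37 °C (0.2% DMSO), then stimulated with LPS 200 ng/mL for 4 h. Supernatant IL-10 measured by chemiluminescent sandwich ELISA; fold change versus LPS only per concentration, reported as maximal fold change (FCmax).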

T1 sequence (Q9Y2K2 59-365 limits assumed): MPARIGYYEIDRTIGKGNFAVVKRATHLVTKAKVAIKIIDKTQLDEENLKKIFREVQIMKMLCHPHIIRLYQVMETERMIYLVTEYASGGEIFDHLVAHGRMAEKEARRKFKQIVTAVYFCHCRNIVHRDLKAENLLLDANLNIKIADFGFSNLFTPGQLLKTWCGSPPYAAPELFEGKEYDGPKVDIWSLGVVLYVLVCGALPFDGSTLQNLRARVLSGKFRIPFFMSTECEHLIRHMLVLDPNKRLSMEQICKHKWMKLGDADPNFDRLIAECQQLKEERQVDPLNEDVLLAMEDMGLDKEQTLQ

| SMILES | IC50 (SIK3) | EC50 [1] | maximal fold induction [2] |
| --- | --- | --- | --- |
| COc1cc(-c2cnn3cc(C(C)(C)C#N)ccc23)cc(OC)c1C(=O)N[C@@H]1C[C@@H]1F [Cpd 245, 4-[6-(1-cyano-1-methyl-ethyl)pyrazolo[1,5-a]pyridin-3-yl]-N-[(1R,2S)-2-fluorocyclopropyl]-2,6-dimethoxy-benzamide] | 10 to 100 nM | 100 to 1000 nM | < 1.5 |
| COc1cc(-c2cnn3cc(C4(C(N)=O)CCC4)ccc23)cc(OC(F)F)c1C(=O)N[C@@H]1C[C@@H]1F [Cpd 254, 4-[6-(1-carbamoylcyclobutyl)pyrazolo[1,5-a]pyridin-3-yl]-2-(difluoromethoxy)-N-[(1R,2S)-2-fluorocyclopropyl]-6-methoxy-benzamide] | 0.01 to 10 nM | 100 to 1000 nM | < 1.5 |
| COc1cc(-c2cnn3cc(C(C)(C)N)ccc23)cc(OC(F)F)c1C(=O)N[C@@H]1C[C@@H]1F [Cpd 256, 4-[6-(1-amino-1-methyl-ethyl)pyrazolo[1,5-a]pyridin-3-yl]-2-(difluoromethoxy)-N-[(1R,2S)-2-fluorocyclopropyl]-6-methoxy-benzamide] | 0.01 to 10 nM | 100 to 1000 nM | < 1.5 |
| COc1cc(-c2cnn3cc(C4(N)CCC4)ccc23)cc(OC(F)F)c1C(=O)N[C@@H]1C[C@@H]1F [Cpd 261, 4-[6-(1-aminocyclobutyl)pyrazolo[1,5-a]pyridin-3-yl]-2-(difluoromethoxy)-N-[(1R,2S)-2-fluorocyclopropyl]-6-methoxy-benzamide] | 0.01 to 10 nM | 100 to 1000 nM | < 1.5 |
| COc1cc(-c2cnn3cc(C4(O)CCC4)ccc23)cc(OC(F)F)c1C(=O)N[C@@H]1C[C@@H]1F [Cpd 266, 2-(difluoromethoxy)-N-[(1R,2S)-2-fluorocyclopropyl]-4-[6-(1-hydroxycyclobutyl)pyrazolo[1,5-a]pyridin-3-yl]-6-methoxy-benzamide] | 0.01 to 10 nM | 100 to 1000 nM | < 1.5 |
| COc1cc(-c2cnn3cc(C(C)(C)CN4CCOCC4)ccc23)cc(OC(F)F)c1C(=O)N[C@@H]1C[C@@H]1F [Cpd 269, 2-(difluoromethoxy)-4-[6-(1,1-dimethyl-2-morpholino-ethyl)pyrazolo[1,5-a]pyridin-3-yl]-N-[(1R,2S)-2-fluorocyclopropyl]-6-methoxy-benzamide] | 0.01 to 10 nM | 100 to 1000 nM | 1.5 to 4.5 |

More lines, main results first:

| IC50 (SIK3) | EC50 [1] | SMILES | maximal fold induction [2] |
| --- | --- | --- | --- |
| 0.01 to 10 nM | 100 to 1000 nM | COc1cc(-c2cnn3cc(C4(C#N)CCOCC4)ccc23)cc(OC(F)F)c1C(=O)NC1CC1 [Cpd 237, 4-[6-(4-cyanotetrahydropyran-4-yl)pyrazolo[1,5-a]pyridin-3-yl]-N-cyclopropyl-2-(difluoromethoxy)-6-methoxy-benzamide] | < 1.5 |
| 0.01 to 10 nM | 0.1 to 100 nM | COc1cc(-c2cnn3cc(C(C)(C)CO)ccc23)cc(OC(F)F)c1C(=O)N[C@@H]1C[C@@H]1F [Cpd 242, 2-(difluoromethoxy)-N-[(1R,2S)-2-fluorocyclopropyl]-4-[6-(2-hydroxy-1,1-dimethyl-ethyl)pyrazolo[1,5-a]pyridin-3-yl]-6-methoxy-benzamide] | < 1.5 |
| 0.01 to 10 nM | 100 to 1000 nM | COc1cc(-c2cnn3cc(C4(C#N)CCOCC4)ccc23)cc(OC(F)F)c1C(=O)N[C@@H]1C[C@@H]1F [Cpd 243, 4-[6-(4-cyanotetrahydropyran-4-yl)pyrazolo[1,5-a]pyridin-3-yl]-2-(difluoromethoxy)-N-[(1R,2S)-2-fluorocyclopropyl]-6-methoxy-benzamide] | < 1.5 |
